`CCc1cccc2c1C(=O)N(C1CCC(=O)NC1=O)C2=O` (stereo not drawn) [Example 6, 2-(2,6-Dioxo(3-piperidyl))-4-ethylisoindoline-1,3-dione] gave a melting point of 235 to 236.5 °C. With `CN(C)c1cccc2c1C(=O)N(C1CCC(=O)NC1=O)C2=O` (stereo not drawn) [Example 8, 4-Dimethylamino-2-(2,6-dioxo(3-piperidyl))isoindoline-1,3-dione] the melting point was 214.5 to 216.5 °C. Work on `Cc1cccc2c1C(=O)N(C1(C)CCC(=O)NC1=O)C2=O` (stereo not drawn) [Example 10, 4-Methyl-2-(2,6-dioxo-3-methyl-(3-piperidyl))isoindoline-1,3-dione] yielded a melting point of 248 to 250 °C.
